The structures appear in SMILES notation.

This experiment addresses T1, human parathyroid cell Ca2+ receptor (hPCaR) (Homo sapiens, UniProt P41180).
T1 construct: expressed in transfected cells
T1 sequence (P41180 20-1078): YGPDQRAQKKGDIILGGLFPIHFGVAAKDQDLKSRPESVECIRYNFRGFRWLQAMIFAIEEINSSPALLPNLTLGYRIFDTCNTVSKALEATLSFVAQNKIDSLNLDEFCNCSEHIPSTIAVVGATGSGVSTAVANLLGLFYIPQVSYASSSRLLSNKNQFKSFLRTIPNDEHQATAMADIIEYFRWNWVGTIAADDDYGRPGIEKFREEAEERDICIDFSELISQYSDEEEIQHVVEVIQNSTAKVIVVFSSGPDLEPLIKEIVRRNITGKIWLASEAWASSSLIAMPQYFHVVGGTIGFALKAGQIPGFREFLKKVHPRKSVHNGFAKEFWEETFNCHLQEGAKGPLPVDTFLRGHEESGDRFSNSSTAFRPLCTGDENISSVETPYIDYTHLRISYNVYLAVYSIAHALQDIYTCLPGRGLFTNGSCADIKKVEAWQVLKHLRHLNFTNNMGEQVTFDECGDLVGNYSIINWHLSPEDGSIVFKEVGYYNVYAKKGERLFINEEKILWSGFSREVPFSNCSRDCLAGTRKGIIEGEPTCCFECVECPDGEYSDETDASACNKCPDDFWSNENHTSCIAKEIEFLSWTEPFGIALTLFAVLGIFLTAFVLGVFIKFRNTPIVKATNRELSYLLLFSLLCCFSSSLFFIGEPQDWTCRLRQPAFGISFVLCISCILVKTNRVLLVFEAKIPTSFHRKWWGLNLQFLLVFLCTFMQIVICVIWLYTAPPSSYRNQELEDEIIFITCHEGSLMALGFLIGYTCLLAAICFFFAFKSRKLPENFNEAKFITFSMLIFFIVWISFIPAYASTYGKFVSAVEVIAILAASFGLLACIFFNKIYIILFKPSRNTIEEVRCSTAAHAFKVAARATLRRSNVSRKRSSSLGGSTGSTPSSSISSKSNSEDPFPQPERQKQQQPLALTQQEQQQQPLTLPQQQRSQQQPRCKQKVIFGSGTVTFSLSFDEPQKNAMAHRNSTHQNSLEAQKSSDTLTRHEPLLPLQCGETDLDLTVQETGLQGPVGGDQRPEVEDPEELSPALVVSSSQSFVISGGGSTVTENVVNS
The experiment in a line: [Ca2+]i fluorescence assay in HEK 293 4.0-7 cells expressing hPCaR. The experiment is classed as cell-based. The following applies: buffer with 1 mM CaCl2. Here is the method:
The activities of the compounds of the present invention on calcium receptors were measured. In one embodiment, the measurement was performed in accordance with the method described in Example 4 of Nemeth et al., PCT/US95/13704 (International Publication No. WO96/12697) herein incorporated by reference.
A 4.0-kb NotI-HindIII fragment of the human parathyroid cell Ca^2+ receptor (hPCaR) cDNA was subcloned into the mammalian expression vector pCEP4 (Invitrogen) containing the hygromycin-resistant gene as a selectable marker. This plasmid was transfected into HEK 293 cells by calcium phosphate precipitation. Transfected cells were grown in Dulbecco's modified Eagle's medium containing 10% fetal bovine serum and hygromycin (200 μg/mL). Hygromycin-resistant colonies were subcloned and assayed for hPCaR mRNA by solution hybridization using a ^32P-labeled RNA probe complementary to the (4.0 kb) hPCaR sequence (Garrett, et al., J. Biol. Chem. 270, 12919-12925 (1995)). Clone 7 was used to assess the effects of compounds on [Ca^2+]i. This stably transfected cell line was termed HEK 293 4.0-7. For measurements of [Ca^2+]i, the cells were recovered from tissue culture flasks by brief treatment with Versene (Invitrogen; Containing 0.2 g/L EDTA.4Na in phosphate-buffered saline) and then seeded in collagen coated 384-well plates (BD Biosciences) at 20K cells per well in the growth media (same as above). Cells were grown in 37c TC incubator overnight. Then, the media was discarded and cells were loaded with 1× dye from Ca^2+ Assay Kit I (BD Biosciences) in parathyroid cell buffer (126 mM NaCl, 4 mM KCl, 1 mM MgSO4, 0.7 mM K2HPO4/KH2PO4, 20 mM HEPES.NaOH (pH 7.45)) containing 0.5% BSA and 1 mM CaCl2. Cells were loaded at room temperature for 90 minutes. Each test compound was added to the cells and the fluorescence was recorded by using excitation and emission wavelengths of 485 and 530 nm, respectively.
One may read the EC50 as the midpoint of the concentration-response curve. In the case of `C[C@@H]1CN(C(=O)CCN(CCC(c2ccccc2)c2ccccc2)C(=O)Nc2nc3ccccc3s2)CCN1` [Example 125, (R)-3-(benzo[d]thiazol-2-yl)-1-(3,3-diphenylpropyl)-1-(3-(3-methylpiperazin-1-yl)-3-oxopropyl)urea], the EC50 lay in the range of 1000 to 5000 nM.

As for `CS(=O)(=O)Nc1ccc(-c2nc(NC(=O)N(CCC(c3ccccc3)c3ccccc3)CCS(N)(=O)=O)sc2Cl)cc1` [Example 136, 2-[{[(5-chloro-4-{4-[(methylsulfonyl)amino]phenyl}-1,3-thiazol-2-yl)amino]carbonyl}(3,3-diphenylpropyl)amino]ethanesulfonamide], the EC50 is less than 100 nM.

`O=C(CCN(CCC(c1ccccc1)c1ccccc1)C(=O)Nc1nc2ccccc2s1)N1CCNCC1` [Example 106, 3-(benzo[d]thiazol-2-yl)-1-(3,3-diphenylpropyl)-1-(3-oxo-3-(piperazin-1-yl)propyl)urea] gave an EC50 of 100 to 1000 nM.

As for `O=C(Nc1nc2ccccc2s1)N(CCN[C@@H]1CCCNC1)CCC(c1ccccc1)c1ccccc1` [Example 145, (R)-3-(benzo[d]thiazol-2-yl)-1-(3,3-diphenylpropyl)-1-(2-(piperidin-3-ylamino)ethyl)urea], the EC50 is less than 100 nM.

In turn, `CS(=O)(=O)Nc1ccc(-c2nc(NC(=O)N(CCCC(=O)O)CCC(c3ccccc3)c3ccccc3)sc2Cl)cc1` [Example 73, 4-(3-(5-chloro-4-(4-(methylsulfonamido)phenyl)thiazol-2-yl)-1-(3,3-diphenylpropyl)ureido)butanoic acid] returned an EC50 of less than 100 nM.

As for `CN(C)S(=O)(=O)NCCN(CCC(c1ccccc1)c1ccccc1)C(=O)Nc1nc2ccccc2s1` [Example 174, N,N-dimethylamino-sulfonyl-{2-[3-benzothiazol-2-yl-1-(3,3-diphenyl-propyl)-ureido]-ethyl}-amide], the EC50 lay within 100 to 1000 nM.

For `CCCS(=O)(=O)NCCN(CCC(c1ccccc1)c1ccccc1)C(=O)Nc1nc2ccccc2s1` [Example 168, Propane-1-sulfonic acid {2-[3-benzothiazol-2-yl-1-(3,3-diphenyl-propyl)-ureido]-ethyl}-amide], the EC50 was in the range of 1000 to 5000 nM.

In the case of `CC(C)(C)OC(=O)N1CCN(C(=O)CCCN(CCC(c2ccccc2)c2ccccc2)C(=O)Nc2nc3ccccc3s2)CC1` [Example 95, tert-butyl 4-(4-(3-(benzo[d]thiazol-2-yl)-1-(3,3-diphenylpropyl)ureido)butanoyl)piperazine-1-carboxylate], the concentration giving a half-maximal response (EC50) is 100 to 1000 nM.

`CS(=O)(=O)Nc1ccc(-c2nc(NC(=O)NCCC(c3ccccc3)c3ccccc3)sc2Cl)cc1` [Example 176, 1-(5-chloro-4-(4-(methylsulfonamido)phenyl)thiazol-2-yl)-3-(3,3-diphenylpropyl)urea]: the EC50 lay within 100 to 1000 nM.

Consider `O=C(CCCN(CCC(c1ccccc1)c1ccccc1)C(=O)Nc1nc2ccccc2s1)NCc1ccccc1` [Example 86, 3-(benzo[d]thiazol-2-yl)-1-(4-(benzylamino)-4-oxobutyl)-1-(3,3-diphenylpropyl)urea], for which the EC50 was less than 100 nM.

Take `O=C(Nc1nc2ccccc2s1)N(CCNC1CCSCC1)CCC(c1ccccc1)c1ccccc1` [Example 155, 3-Benzothiazol-2-yl-1-(3,3-diphenyl-propyl)-1-[2-(tetrahydro-thiopyran-4-ylamino)ethyl]-urea]: the EC50 was in the range of 1000 to 5000 nM.

`O=C1CC[C@@H](NCCN(CCC(c2ccccc2)c2ccccc2)C(=O)Nc2nc3ccccc3s2)CN1` [Example 144, (R)-3-(benzo[d]thiazol-2-yl)-1-(3,3-diphenylpropyl)-1-(2-(6-oxopiperidin-3-ylamino)ethyl)urea] gave a concentration for a half-maximal effect (EC50) of less than 100 nM.

Turning to `CN(C)C(=O)CCCN(CCC(c1ccccc1)c1ccccc1)C(=O)Nc1nc2ccccc2s1` [Example 89, 3-(benzo[d]thiazol-2-yl)-1-(4-(dimethylamino)-4-oxobutyl)-1-(3,3-diphenylpropyl)urea], the EC50 was less than 100 nM.

In turn, `CS(=O)(=O)Nc1ccc(-c2csc(NC(=O)N(CCCC(=O)NC3CCNCC3)CCC(c3ccccc3)c3ccccc3)n2)cc1` [Example 70, 1-(3,3-diphenylpropyl)-3-(4-(4-(methylsulfonamido)phenyl)thiazol-2-yl)-1-(4-oxo-4-(piperidin-4-ylamino)butyl)urea] displayed an EC50 of less than 100 nM.

The compound `CC(CN(CCC(c1ccccc1)c1ccccc1)C(=O)Nc1nc(-c2ccccc2)cs1)C(=O)O` (stereo not drawn) [Example 69, 3-(1-(3,3-diphenylpropyl)-3-(4-phenylthiazol-2-yl)ureido)-2-methylpropanoic acid] gave an EC50 of less than 100 nM.

Compound `O=C(CCN(CCC(c1ccccc1)c1ccccc1)C(=O)Nc1nc2ccccc2s1)N1CCOCC1` [Example 103, 3-(benzo[d]thiazol-2-yl)-1-(3,3-diphenylpropyl)-1-(3-morpholino-3-oxopropyl)urea] yielded an EC50 of 100 to 1000 nM.

Compound `CC(C)(C)OC(=O)N1CCC(NCCN(CCC(c2ccccc2)c2ccccc2)C(=O)Nc2nc3ccccc3s2)CC1` [Example 159, 4-{2-[3-Benzothiazol-2-yl-1-(3,3-diphenyl-propyl)-ureido]-ethylamino}-piperidine-1-carboxylic acid tert-butyl ester] registered an EC50 of 100 to 1000 nM.

In turn, `O=C1CC[C@@H](NCCN(CCC(c2ccccc2)c2ccccc2)C(=O)Nc2nc(-c3ccccc3)c(Cl)s2)CN1` [Example 147, (R)-3-(5-chloro-4-phenylthiazol-2-yl)-1-(3,3-diphenylpropyl)-1-(2-(6-oxopiperidin-3-ylamino)ethyl)urea] had an EC50 of less than 100 nM.

Consider `CC(=O)Nc1ccc(S(=O)(=O)NCCN(CCC(c2ccccc2)c2ccccc2)C(=O)Nc2nc3ccccc3s2)cc1` [Example 170, N-(4-{2-[3-Benzothiazol-2-yl-1-(3,3-diphenylpropyl)-ureido]-ethylsulfamoyl}-phenyl)acetamide], for which the EC50 lay within 100 to 1000 nM.

The compound `CCOC(=O)C1CC1CNCCN(CCC(c1ccccc1)c1ccccc1)C(=O)Nc1nc2ccccc2s1` (stereo not drawn) [Example 152, 2-({2-[3-Benzothiazol-2-yl-1-(3,3-diphenyl-propyl)-ureido]-ethylamino}-methyl)cyclopropanecarboxylic acid ethyl ester] had a concentration for a half-maximal effect (EC50) of 1000 to 5000 nM.

The compound `CC(=O)N1CCN(C(=O)CCCN(CCC(c2ccccc2)c2ccccc2)C(=O)Nc2nc(-c3ccccc3)cs2)CC1` [Example 84, 1-(4-(4-acetylpiperazin-1-yl)-4-oxobutyl)-1-(3,3-diphenylpropyl)-3-(4-phenylthiazol-2-yl)urea] yielded an EC50 of less than 100 nM.

The compound `O=C(CCN(CCC(c1ccccc1)c1ccccc1)C(=O)Nc1nc2ccccc2s1)NCc1ccccc1` [Example 117, 3-(benzo[d]thiazol-2-yl)-1-(3-(benzylamino)-3-oxopropyl)-1-(3,3-diphenylpropyl)urea] yielded an EC50 of 100 to 1000 nM.

`CN(CCN(CCC(c1ccccc1)c1ccccc1)C(=O)Nc1nc2ccccc2s1)C1CCCCC1` [Example 163, 3-Benzothiazol-2-yl-1-[2-(cyclohexyl-methyl-amino)-ethyl]-1-(3,3-diphenyl-propyl)-urea] yielded an EC50 of 100 to 1000 nM.

`O=C(CCCN(CCC(c1ccccc1)c1ccccc1)C(=O)Nc1nc2ccccc2s1)N1CCCCC1` [Example 105, 3-(benzo[d]thiazol-2-yl)-1-(3,3-diphenylpropyl)-1-(4-oxo-4-(piperidin-1-yl)butyl)urea]: the EC50 was 100 to 1000 nM.

For the origin of these results see patent US20080125424A1, “Derivatives of urea and related diamines, methods for their manufacture, and uses therefor” (priority 2006, published 2008).
